pIC50: −log10 of the molar value. Converted amounts (≈) assume the structure as drawn.
Experiments:
Escherichia coli [1] = test: Antimicrobial activity against Escherichia coli expressing beta-lactamase KPC-2 by CLSI broth microdilution method; assay type: functional
Escherichia coli [2] = test: Antimicrobial activity against Escherichia coli expressing beta-lactamase VEB-1 by CLSI broth microdilution method; assay type: functional
Escherichia coli [3] = test: Antimicrobial activity against Escherichia coli expressing beta-lactamase NDM-5 by CLSI broth microdilution method; assay type: functional
[4] = Chemical stability in pH 7.4 potassium phosphate buffer assessed as half life for compound hydrolysis at 37 degC by UPLC and mass spectrometry; assay type: physicochemical
Pseudomonas aeruginosa [5] = test: Antimicrobial activity against Pseudomonas aeruginosa expressing delta-mexB/delta-mexXY/delta-mexCD and delta-ampC mutant by CLSI broth microdilution method; assay type: functional
Pseudomonas aeruginosa [6] = test: Antimicrobial activity against Pseudomonas aeruginosa expressing delta-mexB/mexXY/delta-ampDh2/ delta-ampD by CLSI broth microdilution method; assay type: functional
[7] = target: T1, GABA A receptor alpha-2/beta-2/gamma-2 (Homo sapiens, UniProt P18507+P47869+P47870); test: Inhibition of recombinant human GABA A alpha2beta2gamma2 receptor expressed in CHO-K1 cells incubated at room temperature for 15 mins before the GABA addition fluorescence spectrometry; assay type: cell-based
T1 sequence (P47870 whole entry): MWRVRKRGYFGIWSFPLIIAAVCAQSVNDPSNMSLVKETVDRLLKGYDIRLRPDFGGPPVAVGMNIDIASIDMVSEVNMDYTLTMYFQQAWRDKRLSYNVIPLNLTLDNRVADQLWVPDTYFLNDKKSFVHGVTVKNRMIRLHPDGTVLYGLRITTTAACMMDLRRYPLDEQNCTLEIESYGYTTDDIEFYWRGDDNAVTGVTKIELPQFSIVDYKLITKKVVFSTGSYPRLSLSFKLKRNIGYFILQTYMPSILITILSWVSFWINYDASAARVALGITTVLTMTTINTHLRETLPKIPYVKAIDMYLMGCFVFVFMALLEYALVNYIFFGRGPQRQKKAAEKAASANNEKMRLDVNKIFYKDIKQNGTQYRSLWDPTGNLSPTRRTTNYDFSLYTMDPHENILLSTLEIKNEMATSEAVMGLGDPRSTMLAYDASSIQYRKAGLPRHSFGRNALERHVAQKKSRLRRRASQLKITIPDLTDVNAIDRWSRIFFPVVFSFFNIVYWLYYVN
T1 sequence (P18507 whole entry): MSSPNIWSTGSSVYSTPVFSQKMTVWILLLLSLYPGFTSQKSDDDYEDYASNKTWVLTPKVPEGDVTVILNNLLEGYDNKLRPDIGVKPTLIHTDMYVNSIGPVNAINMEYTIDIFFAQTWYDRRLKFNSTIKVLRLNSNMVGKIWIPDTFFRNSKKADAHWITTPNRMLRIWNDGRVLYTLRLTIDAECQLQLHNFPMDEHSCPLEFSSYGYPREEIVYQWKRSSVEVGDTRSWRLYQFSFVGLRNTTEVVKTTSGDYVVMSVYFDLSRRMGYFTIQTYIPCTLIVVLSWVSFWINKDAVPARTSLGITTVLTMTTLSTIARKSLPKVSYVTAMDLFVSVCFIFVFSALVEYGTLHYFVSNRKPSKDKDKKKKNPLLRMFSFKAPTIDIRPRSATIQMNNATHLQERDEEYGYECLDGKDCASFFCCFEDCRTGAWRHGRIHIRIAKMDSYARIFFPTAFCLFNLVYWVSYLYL
T1 sequence (P47869 whole entry): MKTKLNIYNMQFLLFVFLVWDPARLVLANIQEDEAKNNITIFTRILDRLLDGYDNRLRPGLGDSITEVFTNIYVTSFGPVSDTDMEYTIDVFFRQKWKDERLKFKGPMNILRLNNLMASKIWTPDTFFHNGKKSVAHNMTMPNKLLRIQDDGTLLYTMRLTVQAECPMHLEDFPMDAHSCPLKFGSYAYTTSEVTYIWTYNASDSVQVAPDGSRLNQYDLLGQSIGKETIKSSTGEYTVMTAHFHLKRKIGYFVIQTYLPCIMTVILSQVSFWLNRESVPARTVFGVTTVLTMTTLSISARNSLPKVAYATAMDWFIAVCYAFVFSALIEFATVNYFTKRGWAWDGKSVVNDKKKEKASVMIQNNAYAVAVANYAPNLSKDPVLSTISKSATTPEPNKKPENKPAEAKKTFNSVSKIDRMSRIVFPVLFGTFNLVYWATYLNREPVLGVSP

Escherichia coli [8] = test: microbe, parasite or virus in culture
Description: Antimicrobial activity against Escherichia coli expressing beta-lactamase CTXM-3 by CLSI broth microdilution method

Escherichia coli [9] = test: microbe, parasite or virus in culture; remark: listed apart in the source
Description: Antimicrobial activity against Escherichia coli expressing beta-lactamase CTXM-15 by CLSI broth microdilution method

Escherichia coli [10] = test: microbe, parasite or virus in culture; remark: listed apart in the source
Description: Antimicrobial activity against Escherichia coli expressing beta-lactamase KPC-4 by CLSI broth microdilution method

Escherichia coli [11] = test: microbe, parasite or virus in culture; remark: listed apart in the source
Description: Antimicrobial activity against Escherichia coli expressing beta-lactamase KPC-8 by CLSI broth microdilution method

Escherichia coli [12] = test: microbe, parasite or virus in culture; remark: listed apart in the source
Description: Antimicrobial activity against Escherichia coli expressing beta-lactamase PER-1 by CLSI broth microdilution method

Escherichia coli [13] = test: microbe, parasite or virus in culture; remark: listed apart in the source
Description: Antimicrobial activity against Escherichia coli expressing beta-lactamase PER-2 by CLSI broth microdilution method

Escherichia coli [14] = test: microbe, parasite or virus in culture; remark: listed apart in the source
Description: Antimicrobial activity against Escherichia coli expressing beta-lactamase PER-4 by CLSI broth microdilution method

Escherichia coli [15] = test: microbe, parasite or virus in culture; remark: listed apart in the source
Description: Antimicrobial activity against Escherichia coli expressing beta-lactamase SHV-12 by CLSI broth microdilution method

Escherichia coli [16] = test: microbe, parasite or virus in culture; remark: listed apart in the source
Description: Antimicrobial activity against Escherichia coli expressing beta-lactamase SME-1 by CLSI broth microdilution method

Escherichia coli [17] = test: microbe, parasite or virus in culture; remark: listed apart in the source
Description: Antimicrobial activity against Escherichia coli expressing beta-lactamase VEB-4 by CLSI broth microdilution method

Escherichia coli [18] = test: microbe, parasite or virus in culture; remark: listed apart in the source
Description: Antimicrobial activity against Escherichia coli expressing beta-lactamase TEM-10 by CLSI broth microdilution method

Escherichia coli [19] = test: microbe, parasite or virus in culture; remark: listed apart in the source
Description: Antimicrobial activity against Escherichia coli expressing beta-lactamase TEM-16 by CLSI broth microdilution method

Escherichia coli [20] = test: microbe, parasite or virus in culture; remark: listed apart in the source
Description: Antimicrobial activity against Escherichia coli expressing beta-lactamase TEM-47 by CLSI broth microdilution method

Escherichia coli [21] = test: microbe, parasite or virus in culture; remark: listed apart in the source
Description: Antimicrobial activity against Escherichia coli expressing beta-lactamase GIM-1 by CLSI broth microdilution method

Escherichia coli [22] = test: microbe, parasite or virus in culture; remark: listed apart in the source
Description: Antimicrobial activity against Escherichia coli expressing beta-lactamase SPM-1 by CLSI broth microdilution method

Escherichia coli [23] = test: microbe, parasite or virus in culture; remark: listed apart in the source
Description: Antimicrobial activity against Escherichia coli expressing beta-lactamase VIM-1 by CLSI broth microdilution method

Escherichia coli [24] = test: microbe, parasite or virus in culture; remark: listed apart in the source
Description: Antimicrobial activity against Escherichia coli expressing beta-lactamase AmpC by CLSI broth microdilution method

Escherichia coli [25] = test: microbe, parasite or virus in culture; remark: listed apart in the source
Description: Antimicrobial activity against Escherichia coli expressing beta-lactamase DHA by CLSI broth microdilution method

Escherichia coli [26] = test: microbe, parasite or virus in culture; remark: listed apart in the source
Description: Antimicrobial activity against Escherichia coli expressing beta-lactamase CMY-2 by CLSI broth microdilution method

Escherichia coli [27] = test: microbe, parasite or virus in culture; remark: listed apart in the source
Description: Antimicrobial activity against Escherichia coli expressing beta-lactamase Oxa-10 by CLSI broth microdilution method

Escherichia coli [28] = test: microbe, parasite or virus in culture; remark: listed apart in the source
Description: Antimicrobial activity against Escherichia coli expressing beta-lactamase Oxa-18 by CLSI broth microdilution method

Escherichia coli [29] = test: microbe, parasite or virus in culture; remark: listed apart in the source
Description: Antimicrobial activity against Escherichia coli expressing beta-lactamase Oxa-23 by CLSI broth microdilution method

Escherichia coli [30] = test: microbe, parasite or virus in culture; remark: listed apart in the source
Description: Antimicrobial activity against Escherichia coli expressing beta-lactamase Oxa-40 by CLSI broth microdilution method

Escherichia coli [31] = test: microbe, parasite or virus in culture; remark: listed apart in the source
Description: Antimicrobial activity against Escherichia coli expressing beta-lactamase Oxa-160 by CLSI broth microdilution method

Structure (SMILES)	MIC (Escherichia coli [1]) [µg/mL]	MIC (Escherichia coli [2]) [µg/mL]	MIC (Escherichia coli [3]) [µg/mL]	half-life [4] [days]	MIC (Pseudomonas aeruginosa [5]) [µg/mL]	MIC (Pseudomonas aeruginosa [6]) [µg/mL]	pIC50 [7]	MIC (Escherichia coli [8]) [µg/mL]	MIC (Escherichia coli [9]) [µg/mL]	MIC (Escherichia coli [10]) [µg/mL]	MIC (Escherichia coli [11]) [µg/mL]	MIC (Escherichia coli [12]) [µg/mL]	MIC (Escherichia coli [13]) [µg/mL]	MIC (Escherichia coli [14]) [µg/mL]	MIC (Escherichia coli [15]) [µg/mL]	MIC (Escherichia coli [16]) [µg/mL]	MIC (Escherichia coli [17]) [µg/mL]	MIC (Escherichia coli [18]) [µg/mL]	MIC (Escherichia coli [19]) [µg/mL]	MIC (Escherichia coli [20]) [µg/mL]	also measured
NC[C@@H]1CN(C[C@@H]2[C@H](NC(=O)/C(=N\OC3(C(=O)O)CC3)c3csc(N)n3)C(=O)N2S(=O)(=O)O)C(=O)O1 (stereo in doubt)	0.125 (≈ 0.228 µM)	32 (≈ 58.4 µM)	0.25 (≈ 0.457 µM)	6.54	16 (≈ 29.2 µM)	> 32	2.87	≤ 0.06	0.125 (≈ 0.228 µM)	1 (≈ 1.83 µM)	1 (≈ 1.83 µM)	> 64	> 32	> 32	0.25 (≈ 0.457 µM)	0.06 (≈ 0.11 µM)	32 (≈ 58.4 µM)	1 (≈ 1.83 µM)	0.125 (≈ 0.228 µM)	≤ 0.06	MIC (Escherichia coli [21]): 0.03 µg/mL (≈ 0.0548 µM); MIC (Escherichia coli [22]): 0.06 µg/mL (≈ 0.11 µM); MIC (Escherichia coli [23]): 0.06 µg/mL (≈ 0.11 µM); MIC (Escherichia coli [24]): 0.125 µg/mL (≈ 0.228 µM); MIC (Escherichia coli [25]): 0.25 µg/mL (≈ 0.457 µM); MIC (Escherichia coli [26]): 0.125 µg/mL (≈ 0.228 µM); MIC (Escherichia coli [27]): 0.125 µg/mL (≈ 0.228 µM); MIC (Escherichia coli [28]): 0.5 µg/mL (≈ 0.913 µM); MIC (Escherichia coli [29]): ≤ 0.06 µg/mL; MIC (Escherichia coli [30]): 0.125 µg/mL (≈ 0.228 µM); MIC (Escherichia coli [31]): 0.25 µg/mL (≈ 0.457 µM)
Nc1nc(/C(=N/OC2(C(=O)O)CC2)C(=O)N[C@@H]2C(=O)N(S(=O)(=O)O)[C@@H]2CN2CCOC2=O)cs1 (stereo in doubt) [ANCREMONAM]	0.125 (≈ 0.241 µM)	32 (≈ 61.7 µM)	0.125 (≈ 0.241 µM)	16.7	1 (≈ 1.93 µM)	64 (≈ 123 µM)	< 2.62	0.125 (≈ 0.241 µM)	0.125 (≈ 0.241 µM)	0.5 (≈ 0.964 µM)	0.125 (≈ 0.241 µM)	64 (≈ 123 µM)	128 (≈ 247 µM)	8 (≈ 15.4 µM)	0.5 (≈ 0.964 µM)	0.125 (≈ 0.241 µM)	8 (≈ 15.4 µM)	1 (≈ 1.93 µM)	0.25 (≈ 0.482 µM)	0.125 (≈ 0.241 µM)	MIC (Escherichia coli [21]): 0.125 µg/mL (≈ 0.241 µM); MIC (Escherichia coli [22]): 0.125 µg/mL (≈ 0.241 µM); MIC (Escherichia coli [23]): 0.125 µg/mL (≈ 0.241 µM); MIC (Escherichia coli [24]): 0.25 µg/mL (≈ 0.482 µM); MIC (Escherichia coli [25]): 0.5 µg/mL (≈ 0.964 µM); MIC (Escherichia coli [26]): 0.25 µg/mL (≈ 0.482 µM); MIC (Escherichia coli [27]): 0.125 µg/mL (≈ 0.241 µM); MIC (Escherichia coli [28]): 0.5 µg/mL (≈ 0.964 µM); MIC (Escherichia coli [29]): 0.125 µg/mL (≈ 0.241 µM); MIC (Escherichia coli [30]): 0.125 µg/mL (≈ 0.241 µM); MIC (Escherichia coli [31]): 1 µg/mL (≈ 1.93 µM)

Source: ChEMBL document CHEMBL4184210, “Optimization of novel monobactams with activity against carbapenem-resistant Enterobacteriaceae - Identification of LYS228” (Bioorg Med Chem Lett, 2018)
